Experimental findings from patent publication US20100222269A1, “IMPROVED DERIVATIVES OF AMYLIN” (priority 2007, published 2010) are described below.

Starred links: 1 amine or outer side, 2 acyl side, 3 side chain; linkers in the order of their positions; H or OH if unused. Positions of bridges follow the written chain, without caps; N, C: chain ends. Residues, ends and D or L forms follow the SMILES beside them. Groups on a side chain read outwards from the residue. *: point of attachment. X1 = O=C(CCCCCCCCCCCCCCCc1nnn[nH]1)NS(=O)(=O)CCCC(=O)*; C20 diacid = O=C(O)CCCCCCCCCCCCCCCCCCC(=O)*; C18 diacid = O=C(O)CCCCCCCCCCCCCCCCC(=O)*; γGlu = O=C(O)[C@H](CCC(=O)[*:2])N[*:1]

The target in one assay is T1, Amylin 3(a) receptor (human calcitonin receptor (CTa) with RAMP-3) (Homo sapiens, UniProt O60896+P30988).
T1 construct: expressed in transfected cells; host or cells: BHK570 (baby hamster kidney) cells, stably transfected, with CRE-luciferase reporter
T1 sequence (O60896 24-148): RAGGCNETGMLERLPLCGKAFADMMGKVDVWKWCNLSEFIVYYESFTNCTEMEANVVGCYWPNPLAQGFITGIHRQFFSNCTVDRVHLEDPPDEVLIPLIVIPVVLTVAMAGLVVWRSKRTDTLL
T1 sequence (P30988 25-474): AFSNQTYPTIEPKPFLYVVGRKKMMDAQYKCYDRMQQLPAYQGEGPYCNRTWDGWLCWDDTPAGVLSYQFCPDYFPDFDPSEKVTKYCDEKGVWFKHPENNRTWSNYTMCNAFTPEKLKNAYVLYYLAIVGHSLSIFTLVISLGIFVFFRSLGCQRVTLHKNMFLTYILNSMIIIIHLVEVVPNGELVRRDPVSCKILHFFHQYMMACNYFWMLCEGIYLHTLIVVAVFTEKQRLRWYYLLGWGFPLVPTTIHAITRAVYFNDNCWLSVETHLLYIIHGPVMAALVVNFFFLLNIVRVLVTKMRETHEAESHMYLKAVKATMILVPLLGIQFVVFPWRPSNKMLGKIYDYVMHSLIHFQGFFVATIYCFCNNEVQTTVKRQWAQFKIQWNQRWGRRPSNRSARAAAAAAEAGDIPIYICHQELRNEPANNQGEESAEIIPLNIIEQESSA
As to the kind of experiment: Amylin luciferase assay (CRE-luciferase reporter in BHK Amylin 3(a)//CRE-luc cells). Format: cell-based.
Conditions: not given
The method in brief:
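BHK570 cells stably expressing human calcitonin receptor (CTa), RAMP-3 and a CRE-luciferase reporter, about 20.000 cells/well, were exposed to standard or sample for 4 h at 37° C in phenol-red-free DMEM with 10% FBS and 10 mM Hepes pH 7,4. Luminescence was read after 30 min with LucLite at room temperature.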
In general terms: In a reporter assay the amount or activity of a reporter protein is the signal.
Turning to `CC[C@H](C)[C@H](NC(=O)[C@@H]1CCCN1C(=O)CNC(=O)[C@H](Cc1ccccc1)NC(=O)[C@H](CC(N)=O)NC(=O)[C@H](CC(N)=O)NC(=O)[C@H](CO)NC(=O)[C@H](CO)NC(=O)[C@H](Cc1c[nH]cn1)NC(=O)[C@@H](NC(=O)[C@H](CC(C)C)NC(=O)[C@H](Cc1ccccc1)NC(=O)[C@H](CC(N)=O)NC(=O)[C@H](C)NC(=O)[C@H](CC(C)C)NC(=O)[C@H](CCCNC(=N)N)NC(=O)[C@H](CCC(N)=O)NC(=O)[C@@H](NC(=O)[C@H](C)NC(=O)[C@@H]1CSSC[C@H](N)C(=O)N[C@@H](CCCCNC(=O)CC[C@H](NC(=O)CCCS(=O)(=O)NC(=O)CCCCCCCCCCCCCCCc2nnn[nH]2)C(=O)O)C(=O)N[C@@H]([C@@H](C)O)C(=O)N[C@@H](C)C(=O)N[C@@H]([C@@H](C)O)C(=O)N1)[C@@H](C)O)C(C)C)C(=O)N[C@@H](CC(C)C)C(=O)N1CCC[C@H]1C(=O)N1CCC[C@H]1C(=O)N[C@H](C(=O)N[C@@H](CC(N)=O)C(=O)N[C@H](C(=O)NCC(=O)N[C@@H](CO)C(=O)N[C@@H](CC(N)=O)C(=O)N[C@H](C(=O)N[C@@H](Cc1ccc(O)cc1)C(N)=O)[C@@H](C)O)C(C)C)[C@@H](C)O` [Example 42, N-epsilon3-{4-carboxy-4-[4-(16-1H-tetrazol-5-ylhexadecanoylsulfamoyl)butyrylamino]butyryl}-[Lys3]-pramlintide (2-37)] (H-CK([γGlu-X1])TATCATQRLANFLVHSSNNFGPILPPTNVGSNTY-NH2; disulfide 1-6; N-terminus and C-terminus assumed), the EC50 stood at 0.04 nM.

The same assay, now with this note: BHK570 cells with human calcitonin receptor (CTa), RAMP-3 and CRE-luciferase reporter; 4 hours incubation; read-out: Potency luciferase assay.
As to `CC[C@H](C)[C@H](NC(=O)[C@@H]1CCCN1C(=O)CNC(=O)[C@H](Cc1ccccc1)NC(=O)[C@H](CC(N)=O)NC(=O)[C@H](CC(N)=O)NC(=O)[C@H](CO)NC(=O)[C@H](CO)NC(=O)[C@H](Cc1c[nH]cn1)NC(=O)[C@@H](NC(=O)[C@H](CC(C)C)NC(=O)[C@H](Cc1ccccc1)NC(=O)[C@H](CC(N)=O)NC(=O)[C@H](C)NC(=O)[C@H](CC(C)C)NC(=O)[C@H](CCCNC(=N)N)NC(=O)[C@H](CCC(N)=O)NC(=O)[C@@H](NC(=O)[C@H](C)NC(=O)[C@@H]1CSSC[C@H](NC(=O)[C@H](CCC(=O)O)NC(=O)[C@H](CCCNC(=N)N)NC(=O)[C@H](CCC(=O)O)NC(=O)[C@H](CCC(=O)O)NC(=O)CC[C@H](NC(=O)CCCCCCCCCCCCCCCCCCC(=O)O)C(=O)O)C(=O)N[C@@H](CC(N)=O)C(=O)N[C@@H]([C@@H](C)O)C(=O)N[C@@H](C)C(=O)N[C@@H]([C@@H](C)O)C(=O)N1)[C@@H](C)O)C(C)C)C(=O)N[C@@H](CC(C)C)C(=O)N1CCC[C@H]1C(=O)N1CCC[C@H]1C(=O)N[C@H](C(=O)N[C@@H](CC(N)=O)C(=O)N[C@H](C(=O)NCC(=O)N[C@@H](CO)C(=O)N[C@@H](CC(N)=O)C(=O)N[C@H](C(=O)N[C@@H](Cc1ccc(O)cc1)C(N)=O)[C@@H](C)O)C(C)C)[C@@H](C)O` [Example 38, N-alpha-[(S)-4-carboxy-4-(19-carboxynonadecanoylamino)butyryl]-Glu-Glu-Arg-[Glu1]-pramlintide (1-37)] ({C20 diacid-γGlu}-EERECNTATCATQRLANFLVHSSNNFGPILPPTNVGSNTY-NH2; disulfide 5-10; C-terminus assumed), the EC50 turned out to be 0.3 nM.

Take `CC[C@H](C)[C@H](NC(=O)[C@@H]1CCCN1C(=O)CNC(=O)[C@H](Cc1ccccc1)NC(=O)[C@H](CC(N)=O)NC(=O)[C@H](CC(N)=O)NC(=O)[C@H](CO)NC(=O)[C@H](CO)NC(=O)[C@H](Cc1c[nH]cn1)NC(=O)[C@@H](NC(=O)[C@H](CC(C)C)NC(=O)[C@H](Cc1ccccc1)NC(=O)[C@H](CC(N)=O)NC(=O)[C@H](C)NC(=O)[C@H](CC(C)C)NC(=O)[C@H](CCCNC(=N)N)NC(=O)[C@H](CCC(N)=O)NC(=O)[C@@H](NC(=O)[C@H](C)NC(=O)[C@@H]1CSSC[C@H](NC(=O)[C@H](CCC(=O)O)NC(=O)[C@H](CCCNC(=N)N)NC(=O)[C@H](CCC(=O)O)NC(=O)[C@H](CCC(=O)O)NC(=O)CCCCCCCCCCCCCCCCC(=O)O)C(=O)N[C@@H](CC(N)=O)C(=O)N[C@@H]([C@@H](C)O)C(=O)N[C@@H](C)C(=O)N[C@@H]([C@@H](C)O)C(=O)N1)[C@@H](C)O)C(C)C)C(=O)N[C@@H](CC(C)C)C(=O)N1CCC[C@H]1C(=O)N1CCC[C@H]1C(=O)N[C@H](C(=O)N[C@@H](CC(N)=O)C(=O)N[C@H](C(=O)NCC(=O)N[C@@H](CO)C(=O)N[C@@H](CC(N)=O)C(=O)N[C@H](C(=O)N[C@@H](Cc1ccc(O)cc1)C(N)=O)[C@@H](C)O)C(C)C)[C@@H](C)O` [Example 41, N-alpha-(17-carboxyheptadecanoyl)-Glu-Glu-Arg-[Glu1]pramlintide (1-37)] ({C18 diacid}-EERECNTATCATQRLANFLVHSSNNFGPILPPTNVGSNTY-NH2; disulfide 5-10; C-terminus assumed): the EC50 came to 0.06 nM.

For the molecule `CC[C@H](C)[C@H](NC(=O)[C@@H]1CCCN1C(=O)CNC(=O)[C@H](Cc1ccccc1)NC(=O)[C@H](CC(N)=O)NC(=O)[C@H](CC(N)=O)NC(=O)[C@H](CO)NC(=O)[C@H](CO)NC(=O)[C@H](Cc1c[nH]cn1)NC(=O)[C@@H](NC(=O)[C@H](CC(C)C)NC(=O)[C@H](Cc1ccccc1)NC(=O)[C@H](CC(N)=O)NC(=O)[C@H](C)NC(=O)[C@H](CC(C)C)NC(=O)[C@H](CCCNC(=N)N)NC(=O)[C@H](CCC(N)=O)NC(=O)[C@@H](NC(=O)[C@H](C)NC(=O)[C@@H]1CSSC[C@H](NC(=O)CC[C@H](NC(=O)CCCCCCCCCCCCCCCCCCC(=O)O)C(=O)O)C(=O)N[C@@H](CC(N)=O)C(=O)N[C@@H]([C@@H](C)O)C(=O)N[C@@H](C)C(=O)N[C@@H]([C@@H](C)O)C(=O)N1)[C@@H](C)O)C(C)C)C(=O)N[C@@H](CC(C)C)C(=O)N1CCC[C@H]1C(=O)N1CCC[C@H]1C(=O)N[C@H](C(=O)N[C@@H](CC(N)=O)C(=O)N[C@H](C(=O)NCC(=O)N[C@@H](CO)C(=O)N[C@@H](CC(N)=O)C(=O)N[C@H](C(=O)N[C@@H](Cc1ccc(O)cc1)C(N)=O)[C@@H](C)O)C(C)C)[C@@H](C)O` [Example 43, N-alpha-[(S)-4-carboxy-4-(19-carboxynonadecanoylamino)butyryl]-pramlintide (2-37)] ({C20 diacid-γGlu}-CNTATCATQRLANFLVHSSNNFGPILPPTNVGSNTY-NH2; disulfide 1-6; C-terminus assumed), the EC50 was 0.1 nM.

Turning to `CC[C@H](C)[C@H](NC(=O)[C@@H]1CCCN1C(=O)CNC(=O)[C@H](Cc1ccccc1)NC(=O)[C@H](CC(N)=O)NC(=O)[C@H](CC(N)=O)NC(=O)[C@H](CO)NC(=O)[C@H](CO)NC(=O)[C@H](Cc1c[nH]cn1)NC(=O)[C@@H](NC(=O)[C@H](CC(C)C)NC(=O)[C@H](Cc1ccccc1)NC(=O)[C@H](CC(N)=O)NC(=O)[C@H](C)NC(=O)[C@H](CC(C)C)NC(=O)[C@H](CCCNC(=N)N)NC(=O)[C@H](CCC(N)=O)NC(=O)[C@@H](NC(=O)[C@H](C)NC(=O)[C@@H]1CSSC[C@H](NC(=O)[C@H](CCCNC(=N)N)NC(=O)CC[C@H](NC(=O)CCCCCCCCCCCCCCCCCCC(=O)O)C(=O)O)C(=O)N[C@@H](CC(N)=O)C(=O)N[C@@H]([C@@H](C)O)C(=O)N[C@@H](C)C(=O)N[C@@H]([C@@H](C)O)C(=O)N1)[C@@H](C)O)C(C)C)C(=O)N[C@@H](CC(C)C)C(=O)N1CCC[C@H]1C(=O)N1CCC[C@H]1C(=O)N[C@H](C(=O)N[C@@H](CC(N)=O)C(=O)N[C@H](C(=O)NCC(=O)N[C@@H](CO)C(=O)N[C@@H](CC(N)=O)C(=O)N[C@H](C(=O)N[C@@H](Cc1ccc(O)cc1)C(N)=O)[C@@H](C)O)C(C)C)[C@@H](C)O` [Example 45, N-alpha-[(S)-4-carboxy-4-(19-carboxynonadecanoylamino)butyryl]-[Arg1]-pramlintide (1-37)] ({C20 diacid-γGlu}-RCNTATCATQRLANFLVHSSNNFGPILPPTNVGSNTY-NH2; disulfide 2-7; C-terminus assumed), the EC50 worked out at 0.04 nM.

Take `CC[C@H](C)[C@H](NC(=O)[C@@H]1CCCN1C(=O)CNC(=O)[C@H](Cc1ccccc1)NC(=O)[C@H](CC(N)=O)NC(=O)[C@H](CC(N)=O)NC(=O)[C@H](CO)NC(=O)[C@H](CO)NC(=O)[C@H](Cc1c[nH]cn1)NC(=O)[C@@H](NC(=O)[C@H](CC(C)C)NC(=O)[C@H](Cc1ccccc1)NC(=O)[C@H](CC(N)=O)NC(=O)[C@H](C)NC(=O)[C@H](CC(C)C)NC(=O)[C@H](CCCNC(=N)N)NC(=O)[C@H](CCC(N)=O)NC(=O)[C@@H](NC(=O)[C@H](C)NC(=O)[C@@H]1CSSC[C@H](NC(=O)[C@H](CCCNC(=N)N)NC(=O)[C@H](CCC(=O)O)NC(=O)CCCCCCCCCCCCCCCCCCC(=O)O)C(=O)N[C@@H](CC(N)=O)C(=O)N[C@@H]([C@@H](C)O)C(=O)N[C@@H](C)C(=O)N[C@@H]([C@@H](C)O)C(=O)N1)[C@@H](C)O)C(C)C)C(=O)N[C@@H](CC(C)C)C(=O)N1CCC[C@H]1C(=O)N1CCC[C@H]1C(=O)N[C@H](C(=O)N[C@@H](CC(N)=O)C(=O)N[C@H](C(=O)NCC(=O)N[C@@H](CO)C(=O)N[C@@H](CC(N)=O)C(=O)N[C@H](C(=O)N[C@@H](Cc1ccc(O)cc1)C(N)=O)[C@@H](C)O)C(C)C)[C@@H](C)O` [Example 46, N-alpha-(19-carboxynonadecanoyl)-Glu-[Arg1]-pramlintide (1-37)] ({C20 diacid}-ERCNTATCATQRLANFLVHSSNNFGPILPPTNVGSNTY-NH2; disulfide 3-8; C-terminus assumed): the EC50 was 0.1 nM.
